Reference: patent US20250236589A1, “THERAPEUTIC PHENETHYLAMINE COMPOSITIONS AND METHODS OF USE” (Cybin IRL Limited, priority 2022, published 2025)
pEC50, pKi: −log10 of the molar value.

Key:
5-HT1A receptors [1] = target: T1, 5-HT1A receptors (Homo sapiens (Human), UniProt P08908); assay: 5-HT1A receptor function; assay type: cell-based
Description: I-1 was also a potent 5-HT2 agonist, but at 10 μM, it inhibited >80% radioligand binding to nine other targets (see Table 6). […] I-1 inhibited <90% of radioligand binding to the other seven off-targets.

[2] = PK profile in Wistar rats (plasma, brain, urine); assay type: in vivo, rat
Description: PK profile in Rats. To evaluate the full PK profile for I-1 in rats, plasma and brain pharmacokinetic and urinary excretion of I-1 in male Wistar rats after IV dose at 1 mg/kg and an oral (p.o.) dose at 5 mg/kg administration were determined. Plasma, brain, and urine samples were collected at specified time points after single dose administration of I-1 and quantification of I-1 in the samples was accomplished using LC-MS/MS. The pharmacokinetic parameters were determined as described above.

5-HT1A receptors [3] = target: T1, 5-HT1A receptors; assay: 5-HT1A radioligand binding ([3H]8-OH-DPAT)
Description: In another series of 5-HT1A,2A,2B radioligand competition binding assays, the conditions were as follows: For 5-HT1A assays, cell membrane homogenates (˜30 μg protein) derived from HEK-293 cells expressing human 5-HT1ARs were incubated with 0.5 nM [^3H]8-hydroxy-2-(di-n-propylamino)tetralin ([^3H]8-OH-DPAT) for 60 min at room temperature in the presence or absence of the test article. Non-specific binding was determined in the presence of 10 μM 8-OH-DPAT. Samples were then analyzed as described above, with only immaterial differences. […] Samples were then analyzed as described above.

[4] = In vitro liver microsome stability (RLM); assay type: in vitro ADME; conditions: rat, rat liver microsomes, 0.5 mg/mL microsomes, NADPH, read-out: RLM, t1/2
Description: In vitro stability was determined in Human (HLM), Rat (RLM), Mouse (MsLM), and dog (DLM) Liver Microsomes. All liver microsomes were purchased from a commercial supplier (e.g. XenoTech). The reaction mixture, minus NADPH, was prepared as described below. The test compound was added into the reaction mixture at a final concentration of 1 μM or co-dosed with their deuterated analog(s) at 1 μM each. The control compound, testosterone, was run simultaneously with the test compound in a separate reaction. The reaction mixture (without cofactor) was equilibrated in a shaking water bath at 37° C. for 5 minutes. The reaction was initiated by the addition of the cofactor, and the mixture was incubated in a shaking water bath at 37° C. Aliquots (150 μL) were withdrawn at 0, 5, 10, 20, 30, 60, and 120 minutes. Test compound and testosterone samples were immediately combined with 150 μL of ice-cold acetonitrile (ACN) containing 0.1% formic acid and internal standard to terminate the reaction. The samples were then mixed and centrifuged to precipitate proteins. All samples were assayed by LC-MS/MS using electrospray ionization. The peak area response ratio (PARR) of analyte to internal standard at each time point was compared to the PARR at time 0 to determine the percent remaining at each time point. Half-lives were calculated using GraphPad software, fitting to a single-phase exponential decay equation.

Brain protein binding = assay type: in vitro ADME; conditions: dilute brain homogenate
Text: The CSF concentrations were only 20% of that found in plasma. Concomitantly CSF concentrations were 1.6% of brain concentrations. The CSF/brain ratio corroborates brain protein binding experiments in which the free fraction of compound I-1 in dilute brain homogenate was 1.4%.

human alpha2C receptor = human alpha2C receptor (Homo sapiens (Human), UniProt P18825); assay: alpha2C receptor binding ([3H]rauwolscine)
Description: At 10 μM, I-1 inhibited 97% of radioligand bound to rat alpha2 receptors.

[5] = male, Wistar, rat, po, brain, p.o. 5 mg/kg
[6] = male, Wistar, rat, po, plasma, p.o. 5 mg/kg
[7] = male, Wistar, rat, brain, IV 1 mg/kg
[8] = male, Wistar, rat, plasma, IV 1 mg/kg

human alpha2C receptor, sequence (P18825 whole entry): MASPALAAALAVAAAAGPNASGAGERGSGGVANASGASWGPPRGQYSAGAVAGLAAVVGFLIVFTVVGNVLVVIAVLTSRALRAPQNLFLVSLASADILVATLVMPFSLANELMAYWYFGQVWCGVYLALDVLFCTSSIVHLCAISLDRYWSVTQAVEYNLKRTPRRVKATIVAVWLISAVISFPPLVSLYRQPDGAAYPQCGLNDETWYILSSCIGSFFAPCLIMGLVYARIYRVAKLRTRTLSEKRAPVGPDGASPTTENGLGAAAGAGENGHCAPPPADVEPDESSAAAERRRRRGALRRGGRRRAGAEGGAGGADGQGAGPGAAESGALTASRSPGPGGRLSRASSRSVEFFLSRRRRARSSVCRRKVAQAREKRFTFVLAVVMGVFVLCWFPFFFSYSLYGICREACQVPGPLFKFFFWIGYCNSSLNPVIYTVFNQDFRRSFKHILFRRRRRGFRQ

SMILES: COc1cc(SC(F)(F)F)c(OC)cc1CCN [Compound I-1, 2-(2,5-dimethoxy-4-((trifluoromethyl)thio)phenyl)ethan-1-amine]
- pEC50 (5-HT1A receptors [1]): 7.06
- mean total amount recovered in urine ([2]; IV 1 mg/kg, n=2): 718 ng
- % F (AUCINF) ([2]; absolute oral bioavailability, p.o. 5 mg/kg): 19.1%
- Cmax, brain concentration ([2]; brain, IV 1 mg/kg): 890 ng/g
- T1/2 ([2]; brain, IV 1 mg/kg): 2.44 h
- Cmax, brain concentration ([2]; brain, p.o. 5 mg/kg): 402 ng/g
- T1/2 ([2]; brain, p.o. 5 mg/kg): 4.71 h
- total systemic clearance relative to total hepatic blood flow ([2]; hepatic blood flow 3.3 L/hr/kg): approximately 6 fold
- head twitching observed ([2]; immediately after IV 1 mg/kg, 1.5 hr after oral 5 mg/kg): mild to moderate-grade head twitching
- Tmax ([2]; male, Wistar, rat, brain, iv, 1 mg/kg, IV 1 mg/kg): 0.5 h
- Tmax ([2]; male, Wistar, rat, brain, po, 5 mg/kg, p.o. 5 mg/kg): 2 h
- Tmax ([2]; male, Wistar, rat, plasma, iv, 1 mg/kg, IV 1 mg/kg): 0.083 h
- AUC(0-inf) [2, 5]: 2880 ng·h/mL
- AUC(0-t) [2, 5]: 1860 ng·h/mL
- Cmax [2, 5]: 402 ng/mL
- MRT last [2, 5]: 3.3 h
- half-life [2, 5]: 4.71 h
- AUC(0-inf) [2, 6]: 49.7 ng·h/mL
- AUC(0-t) [2, 6]: 40.3 ng·h/mL
- Cmax [2, 6]: 18.6 ng/mL
- MRT last [2, 6]: 2.25 h
- half-life [2, 6]: 3.53 h
- CL renal ([2]; male, Wistar, rat, urine, IV 1 mg/kg, read-out: Renal clearance (converted)): 1.14 mL/min/kg
- dose excreted ([2]; male, Wistar, rat, urine, IV 1 mg/kg, read-out: percentage recovery in urine): 0.07%
- AUC(0-inf) [2, 7]: 3260 ng·h/mL
- AUC(0-t) [2, 7]: 2910 ng·h/mL
- Cmax [2, 7]: 890 ng/mL
- MRT last [2, 7]: 2.54 h
- half-life [2, 7]: 2.44 h
- AUC(0-inf) [2, 8]: 50.7 ng·h/mL
- AUC(0-t) [2, 8]: 42.2 ng·h/mL
- Cmax [2, 8]: 54.1 ng/mL
- MRT last [2, 8]: 0.62 h
- clearance [2, 8]: 328 mL/min/kg
- half-life [2, 8]: 0.78 h
- C0 ([2]; male, Wistar, rat, plasma, IV 1 mg/kg, extrapolated): 67.2 ng/mL
- Vd ([2]; male, Wistar, rat, plasma, IV 1 mg/kg, read-out: Vz): 22.2 L/kg
- Cl ([2]; plasma, IV 1 mg/kg): 328 mL/min/kg
- T1/2 ([2]; plasma, IV 1 mg/kg): 0.78 h
- T1/2 ([2]; plasma, p.o. 5 mg/kg): 3.53 h
- volume of distribution relative to total body water ([2]; total body water 0.7 L/kg): approximately 32 fold
- inhibition at 0.1 µM (5-HT1A receptors [3]; 100 nM): 55%
- inhibition at 1 µM (5-HT1A receptors [3]; 1 uM): 90%
- half-life at 1 μM [4]: 0.92 h
- fraction unbound (Brain protein binding): 0.014
- pKi (human alpha2C receptor): 6.97
